From US20260365670A1, “EGFR INHIBITORS AND USES THEREOF” (DIZAL (JIANGSU) PHARMACEUTICAL CO., LTD., priority 2022, published 2026)
Like-named read-outs stand apart in the source and are kept apart here.

Legend:
[1] = target: T1, EGFR[T790M/C797S/d746-750] (Homo sapiens, UniProt P00533, C797S/DEL746-750/T790M); assay: Inhibition of EGFR[T790M/C797S/d746-750] biochemical enzymatic activity (HTRF); settings: EGFR[T790M/C797S/d746-750], 1 mM ATP, 1 h at room temperature, read-out: IC50 @T790M - C797S - Del19
T1 construct: purchased Carna Bio
Description: (§1) Biological Example 1: Inhibition of EGFR WT and Mutant Biochemical Enzymatic Activity
(§2) The inhibition potency of compounds against these enzymes was assessed using Homogenous Time Resolved Fluorescence approach (HTRF, CisBio. Cat No. 62TKOPEJ).
(§3) Inhibitory effects of the compounds were determined by measuring the enzymatic activity of EGFR enzyme phosphorylates 1 μM TK Substrate-biotin in the presence of 1 mM adenosine-5′-triphosphate (ATP) and varying concentrations of the test compound. The enzyme reaction buffer contains 5 mM MgCl2, 1 mM MnC12, 0.01% CHAPS, 1 mM dithiothreitol (DTT), 0.5% dimethylsulfoxide (DMSO), and 1× supplemented enzymatic buffer. The WT and mutant EGFR enzymes (SignalChem) were added to plates containing inhibitors, followed by activation of the kinase reaction by addition of ATP and peptide substrates. After incubation for 1 h at room temperature, the reaction was stopped by the addition of the detection reagent mix containing EDTA. The fluorescence was measured at 615 nm and 665 nm, respectively with excitation wavelength at 320 nm. The calculated signal ratio of 665 nm/615 nm is proportional to the kinase activity. The concentration of compound producing 50% inhibition of the respective kinase (IC50) was calculated using four-parameter logistic fit with XL-FIT.

EGFR[T790M/C797S/L858R] = target: T2, EGFR[T790M/C797S/L858R] (Homo sapiens, UniProt P00533, C797S/L858R/T790M); assay: Inhibition of EGFR[T790M/C797S/L858R] biochemical enzymatic activity (HTRF); settings: EGFR[T790M/C797S/L858R], 1 mM ATP, 1 h at room temperature, read-out: IC50 @T790M- C797S - L858R
T2 construct: purchased Carna Bio
Description: as §1, §2, §3

PC-9 = assay: Cell proliferation assay, PC-9 cells (CellTiter-Glo, 72 hours); assay type: cell-based; settings: PC9 cells, read-out: GI50 PC9
Outline: (§4)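 In RPMI1640 medium (PC-9 with 10% FBS), each cell line was seeded at its own density: Ba/F3 5000 and PC-9 500 per well. A compound series was added the next day, with a time-zero viability plate read in parallel. Percent proliferation was subtracted for G0 and referenced to DMSO, and GI50 was derived by curve fitting.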

EGFR Exon19Del/T790M = target: T3, EGFR Exon19Del/T790M (Homo sapiens, UniProt P00533, DEL746-750/T790M); assay: Inhibition of EGFR Exon19Del/T790M biochemical enzymatic activity (HTRF); settings: EGFR Exon19Del/T790M, 1 mM ATP, 1 h at room temperature, read-out: IC50 @Del19-T790M
T3 construct: purchased Carna Bio
Description: as §1, §2, §3

EGFR wild type = target: T4, EGFR wild type (Homo sapiens, UniProt P00533); assay: Inhibition of EGFR wild type biochemical enzymatic activity (HTRF); settings: EGFR wild type, 1 mM ATP, 1 h at room temperature, read-out: IC50 @WT
T4 construct: purchased Carna Bio
Description: as §1, §2, §3

[2] = tested on: Ba/F3 cells expressing EGFR mutations; assay: Cell proliferation assay, Ba/F3 cells expressing EGFR mutations (CellTiter-Glo, 72 hours); assay type: cell-based
Outline: as §4

EGFR Exon19Del = target: T5, EGFR Exon19Del (Homo sapiens, UniProt P00533, DEL746-750); assay: Inhibition of EGFR Exon19Del biochemical enzymatic activity (HTRF); settings: EGFR Exon19Del, 1 mM ATP, 1 h at room temperature, read-out: IC50 @Del19
T5 construct: purchased Carna Bio
Description: as §1, §2, §3

EGFR (C797S L858R) = target: T6, EGFR (C797S L858R) (Homo sapiens, UniProt P00533, C797S/L858R); assay: Inhibition of EGFR (C797S L858R) biochemical enzymatic activity (HTRF); settings: EGFR (C797S L858R), 1 mM ATP, 1 h at room temperature, read-out: IC50 @L858-C797S
T6 construct: purchased signalchem
Description: as §1, §2, §3

EGFR (d746-750 C797S) = target: T7, EGFR (d746-750 C797S) (Homo sapiens, UniProt P00533, C797S/DEL746-750); assay: Inhibition of EGFR (d746-750 C797S) biochemical enzymatic activity (HTRF); settings: EGFR (d746-750 C797S), 1 mM ATP, 1 h at room temperature, read-out: IC50 @Del19-C797S
T7 construct: purchased signalchem
Description: as §1, §2, §3

EGFR L858R/T790M = target: T8, EGFR L858R/T790M (Homo sapiens, UniProt P00533, L858R/T790M); assay: Inhibition of EGFR L858R/T790M biochemical enzymatic activity (HTRF); settings: EGFR L858R/T790M, 1 mM ATP, 1 h at room temperature, read-out: IC50 @L858R-T790M
T8 construct: purchased Carna Bio
Description: as §1, §2, §3

EGFR L858R = target: T9, EGFR L858R (Homo sapiens, UniProt P00533, L858R); assay: Inhibition of EGFR L858R biochemical enzymatic activity (HTRF); settings: 1 mM ATP, 1 h at room temperature, read-out: IC50 @L858R
T9 construct: purchased Carna Bio
Description: as §1, §2, §3

[3] = BaF3 cells, EGFR DEL19 - C797S, read-out: GI50 DEL19 - C797S/BaF3
[4] = BaF3 cells, EGFR DEL19 - T790-C797S, read-out: GI50 DEL19 - T790-C797S/BaF3
[5] = BaF3 cells, EGFR L858R - C797S, read-out: GI50 L858R - C797S/BaF3
[6] = BaF3 cells, EGFR L858R - T790-C797S, read-out: GI50 L858R - T790-C797S/BaF3
[7] = BaF3 cells, EGFR L858R - T790M, read-out: GI50 L858R - T790M/BaF3
[8] = BaF3 cells, EGFR L858R, read-out: GI50 L858R/BaF3
[9] = EGFR DEL19 - T790M, read-out: GI50 DEL19 - T790M

T6 sequence (P00533 25-1210 C797S/L858R): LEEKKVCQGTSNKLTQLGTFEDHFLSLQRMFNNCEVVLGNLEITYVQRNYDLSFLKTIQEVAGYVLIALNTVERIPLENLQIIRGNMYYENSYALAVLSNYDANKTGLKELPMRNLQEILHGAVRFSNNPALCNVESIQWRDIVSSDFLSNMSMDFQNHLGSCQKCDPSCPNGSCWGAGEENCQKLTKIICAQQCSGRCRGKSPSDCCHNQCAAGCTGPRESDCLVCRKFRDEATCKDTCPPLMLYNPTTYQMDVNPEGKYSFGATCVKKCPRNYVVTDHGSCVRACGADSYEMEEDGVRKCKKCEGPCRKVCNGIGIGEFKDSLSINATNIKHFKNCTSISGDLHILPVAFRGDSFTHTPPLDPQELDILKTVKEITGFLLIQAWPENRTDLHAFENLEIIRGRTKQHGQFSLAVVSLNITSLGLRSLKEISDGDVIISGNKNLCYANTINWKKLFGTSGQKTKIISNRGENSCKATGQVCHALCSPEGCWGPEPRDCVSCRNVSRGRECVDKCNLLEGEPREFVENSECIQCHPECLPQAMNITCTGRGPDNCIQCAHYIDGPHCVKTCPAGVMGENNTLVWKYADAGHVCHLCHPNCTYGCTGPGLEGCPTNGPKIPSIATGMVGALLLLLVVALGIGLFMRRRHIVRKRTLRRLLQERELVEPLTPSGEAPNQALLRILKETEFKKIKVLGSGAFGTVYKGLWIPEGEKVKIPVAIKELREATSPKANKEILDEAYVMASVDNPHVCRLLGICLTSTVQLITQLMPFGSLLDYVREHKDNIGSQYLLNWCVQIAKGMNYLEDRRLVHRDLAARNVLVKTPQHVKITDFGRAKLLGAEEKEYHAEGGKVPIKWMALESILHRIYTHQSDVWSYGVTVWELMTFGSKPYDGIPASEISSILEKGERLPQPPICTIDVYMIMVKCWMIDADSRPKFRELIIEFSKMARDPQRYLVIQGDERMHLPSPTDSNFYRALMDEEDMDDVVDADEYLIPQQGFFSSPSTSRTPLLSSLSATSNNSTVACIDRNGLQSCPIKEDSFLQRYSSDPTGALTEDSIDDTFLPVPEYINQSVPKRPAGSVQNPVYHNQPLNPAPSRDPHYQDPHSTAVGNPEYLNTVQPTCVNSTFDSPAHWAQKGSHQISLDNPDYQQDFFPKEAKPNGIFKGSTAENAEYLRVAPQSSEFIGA
T3 sequence (P00533 with tags, fused parts or gaps DEL746-750/T790M limits assumed): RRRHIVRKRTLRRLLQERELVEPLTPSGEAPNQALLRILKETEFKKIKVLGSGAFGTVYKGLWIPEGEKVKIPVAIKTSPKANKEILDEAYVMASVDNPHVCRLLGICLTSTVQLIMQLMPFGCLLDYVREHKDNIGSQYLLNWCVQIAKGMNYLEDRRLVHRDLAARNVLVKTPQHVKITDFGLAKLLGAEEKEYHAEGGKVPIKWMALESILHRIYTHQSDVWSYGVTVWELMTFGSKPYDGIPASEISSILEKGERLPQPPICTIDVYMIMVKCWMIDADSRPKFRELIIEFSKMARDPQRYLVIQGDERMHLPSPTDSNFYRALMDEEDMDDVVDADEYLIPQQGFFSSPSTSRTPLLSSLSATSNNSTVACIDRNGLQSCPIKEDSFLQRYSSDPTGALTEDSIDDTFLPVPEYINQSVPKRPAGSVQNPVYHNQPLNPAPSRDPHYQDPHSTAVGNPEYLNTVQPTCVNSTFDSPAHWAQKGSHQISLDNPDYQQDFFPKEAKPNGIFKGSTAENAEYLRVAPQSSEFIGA
T2 sequence (P00533 25-1210 T790M/C797S/L858R): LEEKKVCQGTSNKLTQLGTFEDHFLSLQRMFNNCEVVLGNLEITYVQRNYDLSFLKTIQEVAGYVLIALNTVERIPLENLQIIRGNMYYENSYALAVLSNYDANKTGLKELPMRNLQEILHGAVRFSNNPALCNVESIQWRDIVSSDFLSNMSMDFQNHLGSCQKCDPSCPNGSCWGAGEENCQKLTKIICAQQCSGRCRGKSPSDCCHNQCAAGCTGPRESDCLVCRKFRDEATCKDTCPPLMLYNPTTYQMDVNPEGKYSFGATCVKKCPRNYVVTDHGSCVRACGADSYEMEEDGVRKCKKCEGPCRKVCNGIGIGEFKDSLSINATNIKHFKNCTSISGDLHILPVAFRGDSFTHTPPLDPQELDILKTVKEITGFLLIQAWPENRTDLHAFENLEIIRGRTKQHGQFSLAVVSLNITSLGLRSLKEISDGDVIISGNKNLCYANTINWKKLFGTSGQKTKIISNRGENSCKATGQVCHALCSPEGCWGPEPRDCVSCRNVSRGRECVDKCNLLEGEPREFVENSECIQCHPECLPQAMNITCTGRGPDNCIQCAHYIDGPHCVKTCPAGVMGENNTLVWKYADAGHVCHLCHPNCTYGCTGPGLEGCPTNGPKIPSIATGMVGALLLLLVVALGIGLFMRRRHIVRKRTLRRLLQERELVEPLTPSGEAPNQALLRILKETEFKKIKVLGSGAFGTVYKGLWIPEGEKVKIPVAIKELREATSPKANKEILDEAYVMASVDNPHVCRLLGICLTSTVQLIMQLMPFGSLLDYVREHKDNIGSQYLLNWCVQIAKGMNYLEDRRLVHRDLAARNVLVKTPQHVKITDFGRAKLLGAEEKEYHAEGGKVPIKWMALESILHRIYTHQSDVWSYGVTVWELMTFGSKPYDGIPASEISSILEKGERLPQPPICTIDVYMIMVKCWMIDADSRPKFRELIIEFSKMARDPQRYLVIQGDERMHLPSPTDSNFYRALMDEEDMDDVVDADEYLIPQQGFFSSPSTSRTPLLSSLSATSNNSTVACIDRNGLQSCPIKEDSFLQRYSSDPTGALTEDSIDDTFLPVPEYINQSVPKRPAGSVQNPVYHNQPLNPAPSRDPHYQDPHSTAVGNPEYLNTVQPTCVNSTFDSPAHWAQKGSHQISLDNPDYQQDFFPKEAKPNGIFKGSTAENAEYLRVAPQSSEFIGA
T5 sequence (P00533 with tags, fused parts or gaps DEL746-750 limits assumed): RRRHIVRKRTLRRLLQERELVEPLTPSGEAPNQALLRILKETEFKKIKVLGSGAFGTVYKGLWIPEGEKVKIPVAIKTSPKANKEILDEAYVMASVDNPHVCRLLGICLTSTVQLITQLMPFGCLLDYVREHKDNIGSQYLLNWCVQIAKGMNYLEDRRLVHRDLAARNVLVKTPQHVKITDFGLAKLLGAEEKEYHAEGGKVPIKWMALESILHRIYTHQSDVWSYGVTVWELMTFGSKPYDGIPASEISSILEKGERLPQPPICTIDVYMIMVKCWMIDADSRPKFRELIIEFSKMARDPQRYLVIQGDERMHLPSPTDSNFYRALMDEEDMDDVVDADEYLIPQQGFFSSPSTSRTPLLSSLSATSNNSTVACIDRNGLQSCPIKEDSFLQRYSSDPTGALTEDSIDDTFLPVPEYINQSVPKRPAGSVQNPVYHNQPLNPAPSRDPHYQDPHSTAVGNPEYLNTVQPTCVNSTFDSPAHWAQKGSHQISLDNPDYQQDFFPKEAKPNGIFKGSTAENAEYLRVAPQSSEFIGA
T4 sequence (P00533 25-1210): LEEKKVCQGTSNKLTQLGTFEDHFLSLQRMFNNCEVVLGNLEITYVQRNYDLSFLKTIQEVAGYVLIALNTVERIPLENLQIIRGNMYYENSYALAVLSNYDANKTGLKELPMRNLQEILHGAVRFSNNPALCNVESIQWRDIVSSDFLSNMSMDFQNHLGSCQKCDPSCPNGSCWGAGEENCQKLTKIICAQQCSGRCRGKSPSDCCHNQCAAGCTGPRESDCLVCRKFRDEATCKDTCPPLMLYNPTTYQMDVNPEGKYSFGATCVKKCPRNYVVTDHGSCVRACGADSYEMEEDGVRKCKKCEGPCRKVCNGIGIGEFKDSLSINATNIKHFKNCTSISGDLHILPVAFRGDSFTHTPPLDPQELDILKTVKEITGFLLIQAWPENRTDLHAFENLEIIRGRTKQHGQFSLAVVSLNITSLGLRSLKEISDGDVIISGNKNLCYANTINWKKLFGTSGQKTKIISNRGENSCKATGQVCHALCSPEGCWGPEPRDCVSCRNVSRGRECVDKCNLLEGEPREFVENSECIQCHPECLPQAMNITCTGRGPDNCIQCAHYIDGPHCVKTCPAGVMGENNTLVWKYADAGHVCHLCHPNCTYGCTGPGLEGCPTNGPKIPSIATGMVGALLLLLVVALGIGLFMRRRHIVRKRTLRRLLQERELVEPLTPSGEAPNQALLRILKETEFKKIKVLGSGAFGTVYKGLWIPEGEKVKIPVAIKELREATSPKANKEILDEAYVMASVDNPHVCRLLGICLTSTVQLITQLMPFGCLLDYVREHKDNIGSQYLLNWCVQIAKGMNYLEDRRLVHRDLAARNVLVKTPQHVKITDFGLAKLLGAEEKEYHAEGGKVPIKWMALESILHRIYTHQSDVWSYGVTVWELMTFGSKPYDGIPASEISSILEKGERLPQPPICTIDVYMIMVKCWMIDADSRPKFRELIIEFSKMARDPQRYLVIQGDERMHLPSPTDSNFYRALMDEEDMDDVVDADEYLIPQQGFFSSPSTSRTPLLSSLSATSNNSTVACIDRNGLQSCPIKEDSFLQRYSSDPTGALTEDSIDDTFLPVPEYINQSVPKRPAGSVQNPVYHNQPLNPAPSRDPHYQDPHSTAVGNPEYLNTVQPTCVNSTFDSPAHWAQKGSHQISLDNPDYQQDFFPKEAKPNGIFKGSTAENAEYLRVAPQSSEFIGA

| Compound | IC50 [1] | IC50 (EGFR[T790M/C797S/L858R]) | GI50 (PC-9) | IC50 (EGFR Exon19Del/T790M) | IC50 (EGFR wild type) | GI50 [2, 3] | GI50 [2, 4] | GI50 [2, 5] | GI50 [2, 6] | GI50 [2, 7] | GI50 [2, 8] | GI50 [2, 9] | IC50 (EGFR Exon19Del) | IC50 (EGFR (C797S L858R)) | IC50 (EGFR (d746-750 C797S)) | IC50 (EGFR L858R/T790M) | IC50 (EGFR L858R) |
| --- | --- | --- | --- | --- | --- | --- | --- | --- | --- | --- | --- | --- | --- | --- | --- | --- | --- |
| CCN1CCN(c2ccc3nc4n(c3c2)C23CCC(CN(CCOc5c(cnn5C)-c5cc(cc(C)n5)C(=O)N4)C2)C3)CC1 (single isomer, unassigned) [Example B56A] | 360 nM | > 5000 nM | 443 nM | 1320 nM | > 5000 nM | 82 nM | 145 nM | 417 nM | 58 nM | 80 nM | 1030 nM | 230 nM | 3180 nM | > 5000 nM | 2390 nM | > 5000 nM | > 5000 nM |
| Cc1cc2cc(n1)-c1cnn(C)c1OCCN1CC3CCC(C3)(C1)n1c(nc3ccc(N4CCC5(CN(C)C5)C4)cc31)NC2=O (single isomer, unassigned) [Example B50A] | 748 nM | > 5000 nM | 1550 nM | 2290 nM | > 5000 nM | 302 nM | 437 nM | 741 nM | 52 nM | 320 nM | 1280 nM | 377 nM | > 5000 nM | > 5000 nM | > 5000 nM | > 5000 nM | > 5000 nM |
